Counter-ions that a name gives are not always drawn. Like-named read-outs stand apart in the source and are kept apart here.

Consider 21 compounds from patent US20080312227A1, “Substituted Pyrido(2,3-D) Pyrimidine Derivatives Useful as Medicines for the Treatment of Autoimmune Disorders” (4 AZA BIOSCIENCE NV, priority 2005, published 2008).

The subject of assay [1] is human TNF-α production by PBMC. Description: TNF-α assay (LPS-stimulated PBMC, sandwich ELISA). The class given is cell-based. The conditions noted are these: PBMC stimulated with LPS 1 μg/ml, 72 hours, read-out: TNF α (IC50 in the TNFα assay). Here is the method: Peripheral blood mononuclear cells (herein referred as PBMC), in response to stimulation by lipopolysaccharide (hereinafter LPS), a gram-negative bacterial endotoxin, produce various […], in particular human TNF-α. Inhibition of the activation of PBMC can therefore be measured by the level of suppression of the production of TNF-α by PBMC in response to stimulation by LPS.
Such inhibition measurement was performed as follows: PBMC were isolated from heparinized peripheral blood by density gradient centrifugation over Lymphoprep (commercially available from Nycomed, Norway). LPS was then added to the PMBC suspension in complete medium (10^6 cells/ml) at a final concentration of 1 μg/ml. The pyrido[3,2-d]pyrimidine derivative to be tested was added at different concentrations (0.1 μM, 1 μM and 10 μM) and the cells were incubated at 37° C. for 72 hours in 5% CO2. The supernatants were collected, then TNF-α concentrations were measured with respectively an anti-TNF-α antibody in a sandwich ELISA (Duo Set ELISA human TNFα, commercially available from R&D Systems, United Kingdom). The colorimetric reading of the ELISA was measured by a Multiskan RC plate reader (commercially available from ThermoLabsystems, Finland) at 450 nm (reference wavelength: 690 nm). Data analysis was performed with Ascent software 2.6. (also from ThermoLabsystems, Finland): a standard curve (recombinant human TNFα) was drawn and the amount (pg/ml) of each sample on the standard curve was determined.
The % suppression of human TNFα production by the pyrido[2,3-d]pyrimidine derivatives of the invention was calculated using the formula: […]
A general note: ELISA stands for enzyme-linked immunosorbent assay.

The subject of assay [2] is mixed lymphocyte reaction (PBMC with irradiated allogeneic PBMC or RPMI1788 stimulator cells). Description: Mixed lymphocyte reaction (MLR) assay. Format: cell-based, human. Particulars: read-out: MLR (IC50, lowest concentration giving 50% suppression of the MLR). The protocol: Pyrido[2,3-d]pyrimidine derivatives were first dissolved (10 mM) in dimethyl-sulfoxide (hereinafter referred as DMSO) and further diluted in culture medium before use for the following in vitro experiments. The commercially available culture medium consisted of RPMI-1640+10% foetal calf serum (FCS). Some pyrido[2,3-d]pyrimidine derivatives described herein were tested in the following mixed lymphocyte reaction (MLR) assay.
Peripheral blood mononuclear cells (hereinafter referred as PBMC) were isolated from heparinized peripheral blood by density gradient centrifugation over Lymphoprep (Nycomed, Maorstua, Norway). Allogeneic PBMC or Eppstein-Barr Virus-transformed human B cells [commercially available under the trade name RPMI1788 (ATCC name CCL156)] which strongly express B7-1 and B7-2 antigens were used as stimulator cells after irradiation with 30 Gy. MLR was performed in triplicate wells. After 5 days incubation at 37° C., 1 μCi [^3H]-thymidine was added to each cup. After a further 16 hours incubation, cells were harvested and counted in a β-counter. Inhibition of proliferation by a compound described in some of the present examples was counted while using the formula: […]
wherein cpm is the thymidine count per minute. The MLR assay is regarded by those skilled in the art as an in vitro analogue of the transplant rejection since it is based on the recognition of allogeneic major histocompatibility antigens on the stimulator leukocytes, by responding lymphocytes.

Assay [3] concerns human IL-1 β production by PBMC. Description: IL-1 β assay (LPS-stimulated PBMC, sandwich ELISA). Format: cell-based. Particulars: PBMC stimulated with LPS 1 μg/ml, 72 hours, read-out: IC50 in the IL-1 β test (50% suppression of human IL-1 β). Here is the method:
Peripheral blood mononuclear cells (herein referred as PBMC), in response to stimulation by lipopolysaccharide (LPS), a gram-negative bacterial endotoxin, produce various […], in particular human IL-1 β. Inhibition of the activation of PBMC can therefore be measured by the level of suppression of the production of IL-1 β by PBMC in response to stimulation by LPS.
Such inhibition measurement was performed as follows: PBMC were isolated from heparinized peripheral blood by density gradient centrifugation over Lymphoprep (commercially available from Nycomed, Norway). LPS was then added to the PMBC suspension in complete medium (10^6 cells/ml) at a final concentration of 1 μg/ml. […] The supernatants were collected, then IL-1 β concentrations were measured with an anti-IL-1 β antibody in a sandwich ELISA. The calorimetric reading of the ELISA was measured by a Multiskan RC plate reader (commercially available from ThermoLabsystems, Finland) at 450 nm (reference wavelength: 690 nm). […] (also from ThermoLabsystems, Finland): a standard curve (recombinant human IL-1 β) was drawn and the amount (pg/ml) of each sample on the standard curve was determined.
The % suppression of human IL-1 β by the pyrido[2,3-d]pyrimidine derivatives of this invention was calculated using the formula: […]

Setting [4] is: Homo sapiens, RPMI-1788, 5 days incubation then 16 h [3H]-thymidine.
[5] abbreviates: 5 days incubation then 16 h [3H]-thymidine.

As to “2-amino-6-(3,4-dimethoxyphenyl)-4-(4-N-methyl piperidinoxy)pyrido[2,3-d]pyrimidine [Example 34]”, the IC50 in assay [1] was determined as 6700 nM.

As for `COc1ccc(-c2cnc3nc(N)nc(NCc4ccccc4)c3c2)cc1OC` [Example 43, 2-amino-4-(benzylamino)-6-(3,4-dimethoxyphenyl)pyrido[2,3-d]pyrimidine], in assay [2] (setting [4]), the IC50 was 5000 nM.

Consider `CCC(C)Oc1nc(N)nc2ncc(-c3ccc(OC)c(OC)c3)cc12` (centres unmarked) [Example 36, 2-amino-4-(sec-butoxy)-6-(3,4-dimethoxyphenyl)-pyrido[2,3d]pyrimidine], for which the IC50 in assay [1] stood at 600 nM; in assay [2] (setting [5]), 2600 nM.

As for `Cc1ccc(NC(=O)N2CCN(c3nc(N)nc4ncc(Br)cc34)CC2)cc1` [Example 7, 2-amino-4-[N-4-methylphenylcarbamoyl-piperazin-1-yl]-6-bromo-pyrido[2,3-d]pyrimidine], in assay [2] (setting [5]), the IC50 turned out to be 700 nM.

For the compound `COc1ccc(-c2cnc3nc(N)nc(NCCc4ccccc4)c3c2)cc1OC` [Example 44, 2-amino-4-(phenylethylamino)-6-(3,4-dimethoxyphenyl)pyrido[2,3-d]pyrimidine], the IC50 in assay [1] (Homo sapiens) came out at 4200 nM; in assay [2] (setting [4]), 4300 nM.

As for `COc1ccc(-c2cnc3nc(N)nc(N4CCOCC4)c3c2)cc1OC` [Example 4, 2-amino-4-morpholino-6-(3,4-dimethoxyphenyl)-pyrido[2,3-d]pyrimidine], the results for the IC50 in assay [1] (Homo sapiens) and in assay [2] (setting [4]) were 3200 nM and 4800 nM, respectively.

Consider `COc1ccc(-c2cnc3nc(N)nc(OC)c3c2)cc1OC` [Example 35, 2-amino-4-methoxy-6-(3,4-dimethoxyphenyl)pyrido[2,3d]pyrimidine], for which the IC50 was 900 nM in assay [1] and 6200 nM in assay [2] (setting [5]).

Take `COc1ccc(-c2cnc3nc(N)nc(N4CCCCC4)c3c2)cc1OC` [Example 32, 2-amino-4-(1-piperidino)-6-(3,4-dimethoxyphenyl)pyrido[2,3-d]pyrimidine]: the results for the IC50 in assay [1] and in assay [2] (setting [5]) were 900 nM and 1900 nM, respectively.

As for `CC(C)Oc1nc(N)nc2ncc(-c3cccs3)cc12` [Example 21, 2-amino-4-isopropoxy-6-(2-thienyl)pyrido[2,3-d]pyrimidine], the IC50 in assay [1] (Homo sapiens) was determined as 800 nM.

As for `COc1ccc(-c2cnc3nc(N)nc(N4CCN(C(=O)COc5ccccc5)CC4)c3c2)cc1OC` [Example 10, 2-amino-4-(N-phenoxyacetyl-N-piperazin-1-yl)-6-(3,4-dimethoxyphenyl)pyrido[2,3d]pyrimidine], the IC50 stood at 1700 nM in assay [1] and 300 nM in assay [2] (setting [5]).

On to `COc1ccc(-c2cnc3nc(N)nc(NC(C)C)c3c2)cc1OC` [Example 31, 2-amino-4-isopropylamino-6-(3,4-dimethoxyphenyl)pyrido[2,3-d]pyrimidine], for which the IC50 in assay [1] (Homo sapiens) turned out to be 700 nM; in assay [2] (setting [4]), 5700 nM.

Turning to `Cc1ccc(-c2cnc3nc(N)nc(OC(C)C)c3c2)cc1C` [Example 38, 2-amino-4-isopropoxy-6-(3,4-dimethylphenyl)-pyrido[2,3-d]pyrimidine], the IC50 in assay [1] (Homo sapiens) stood at 900 nM.

Consider `CCC(C)Oc1nc(N)nc2ncc(-c3ccc(OC)c(OC)c3)cc12` (centres unmarked) [Example 37, hydrochloride salt of 2-amino-4-(sec-butoxy)-6-(3,4-dimethoxyphenyl)-pyrido[2,3-d]pyrimidine], for which the IC50 is 500 nM in assay [1] and 3200 nM in assay [2] (setting [5]).

Turning to `COc1ccc(-c2cnc3nc(N)nc(N4CCN(Cc5ccccc5)CC4)c3c2)cc1OC` [Example 23, 2-amino-4-(4-benzylpiperazin-1-yl)-6-(3,4-dimethoxyphenyl)-pyrido[2,3-d]pyrimidine], the IC50 in assay [1] (Homo sapiens) came out at 700 nM; in assay [2] (setting [4]), 7200 nM.

On to `COc1ccc(-c2cnc3nc(N)nc(N4CCN(C(=O)Nc5ccc(C)cc5)CC4)c3c2)cc1OC` [Example 12, 2-amino-4-(N-4-methylphenylcarbamoyl-piperazin-1-yl]-6-(3,4-dimethoxyphenyl)pyrido[2,3-d]pyrimidine], for which the IC50 turned out to be 4900 nM in assay [1] and 400 nM in assay [2] (setting [5]).

Regarding `COc1ccc(-c2cnc3nc(N)nc(N4CCN(C(=O)OCc5ccccc5)CC4)c3c2)cc1OC` [Example 15, 2-amino-6-(3,4-dimethoxyphenyl)-4-[(N-benzyloxycarbonyl)-piperazin-1-yl]-pyrido[2,3-d]pyrimidine], the values for the IC50 in assay [1], in assay [2] (setting [5]) and in assay [3] were 900 nM, 800 nM and 7000 nM, respectively.

As to `COc1ccc(-c2cnc3nc(N)nc(Nc4cccc(Br)c4)c3c2)cc1OC` [Example 42, 2-amino-4-(3-bromo-anilino)-6-(3,4-dimethoxyphenyl)pyrido[2,3-d]pyrimidine], the IC50 in assay [1] (Homo sapiens) is 3300 nM; in assay [2] (setting [4]) it was 3300 nM; in assay [3] (Homo sapiens), 7000 nM.

For the compound `COc1ccc(-c2cnc3nc(N)nc(OC4CCOCC4)c3c2)cc1OC` [Example 33, 2-amino-4-(tetrahydro-2H-pyran-4-yloxy)-6-(3,4-dimethoxyphenyl)pyrido[2,3-d]pyrimidine], the IC50 is 600 nM in assay [1] (Homo sapiens) and 2400 nM in assay [2] (setting [4]).

Consider `COc1ccc(-c2cnc3nc(N)nc(N4CCNCC4)c3c2)cc1OC` [Example 22, 2-amino-4-(piperazin-1-yl)-6-(3,4-dimethoxyphenyl)-pyrido[2,3-d]pyrimidine], for which, in assay [1] (Homo sapiens), the IC50 was found to be 8100 nM.

`CCCNc1nc(N)nc2ncc(-c3ccc(OC)c(OC)c3)cc12` [Example 30, 2-amino-4-n-propylamino-6-(3,4-dimethoxyphenyl)pyrido[2,3-d]pyrimidine]: the values for the IC50 in assay [1] (Homo sapiens) and in assay [2] (setting [4]) were 4000 nM and 5200 nM, respectively.

Consider `COc1ccc(-c2cnc3nc(N)nc(OC(C)C)c3c2)cc1OC` [Example 2, 2-amino-4-isopropoxy-6-(3,4-dimethoxyphenyl)-pyrido[2,3-d]pyrimidine], for which the IC50 worked out at 90 nM in assay [1] (Homo sapiens) and 900 nM in assay [2] (setting [4]).
